Laboratory results published in paper PMC7292537, “BGAL1 depletion boosts the level of β‐galactosylation of N‐ and O‐glycans in N. benthamiana” (Plant Biotechnology Journal, 2020).

System: T1, NbBGAL1 (SPα-BGAL1)
T1 construct: mature residues 25-846 (GH35 + Gal-lectin domain), own signal peptide replaced by barley alpha-amylase signal peptide, C-terminal StrepII tag (WSHPQFEK); transiently expressed in N. benthamiana, apoplastic fluid not purified; 95 kDa full length plus 48 kDa GH35 and 38 kDa truncated forms; precursor 846 aa
Assay: fluorescein release, Hanes-Woolf and Lineweaver-Burk
Assay type: biochemical, Nicotiana benthamiana
Settings: read-out: apparent KM; apoplastic fluid with overexpressed enzyme; 50 mM MES pH 5.0, 25 °C, 1 h; FDG 0-250 µM (printed unit mM doubtful, perhaps µM); unit of the source corrected; heading: apparent KM

O=C1OC2(c3ccc(O[C@@H]4O[C@H](CO)[C@H](O)[C@H](O)[C@H]4O)cc3Oc3cc(O[C@@H]4O[C@H](CO)[C@H](O)[C@H](O)[C@H]4O)ccc32)c2ccccc21 [FDG, fluorescein di-β-D-galactopyranoside]
Km: 0.0298 mM
